Data on 31 compounds can be found in patent US9000162B2, “5,8-difluoro-4-(2-(4-(heteroaryloxy)-phenyl)ethylamino)quinazolines and their use as agrochemicals” (Dow AgroSciences LLC, priority 2008, dated 2015).

What all share (format): in vivo
Assay [1] deals with Septoria tritici (SEPTTR). Description: Septoria blotch of wheat foliar protectant test. The conditions noted are these: Zymoseptoria tritici, read-out: Activity against fungal diseases SEPTTR; for pest or weed control at 200 ppm: 200 ppm foliar, inoculated one day after treatment. In a few lines: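 Wheat seedlings (3-10 per pot) were sprayed to wet with formulated compound and inoculated next day with Septoria tritici spores. Plants then had 1 day in a dark dew chamber and 3 days in a lighted one before greenhouse incubation. Severity versus untreated inoculated plants gave percent control, scored *** 80-100%, ** 50-79%, * 0-49%.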

Assay [2] has as its system Pseudoperonospora cubensis (PSPECU). Description: Cucumber downy mildew foliar protectant test. The conditions noted are these: 200 ppm foliar, inoculated one day after treatment, read-out: Activity against fungal diseases PSPECU. In a few lines: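 Cucumber seedlings, first true leaf 20-80% expanded, were sprayed to wetness with formulated compound and inoculated next day with aqueous sporangia suspension. Severity was converted to percent control versus untreated inoculated plants: ***=80-100%, **=50-79%, *=0-49%.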

The test system of assay [3] is Puccinia recondita tritici (PUCCRT). The assay can be described thus: Leaf rust of wheat foliar protectant test. As to conditions: 200 ppm foliar, inoculated one day after treatment, read-out: Activity against fungal diseases PUCCRT. In outline: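 Wheat seedlings (3–8 per pot) were sprayed to wet with formulated compound and inoculated the next day with an aqueous Puccinia recondita tritici spore suspension. Severity was converted to % control versus untreated inoculated plants and rated *** 80–100%, ** 50–79%, * 0–49%.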

For assay [4], the system named is Magnaporthe grisea = Pyricularia oryzae (PYRIOR). The assay can be described thus: whole plant or invertebrate. The conditions noted are these: foliar, read-out: Activity against fungal diseases PYRIOR.

Turning to `C=Cc1cc(CCNc2ncnc3c(F)ccc(F)c23)ccc1Oc1cc(C(F)(F)F)ccn1` [Compound 65], the pest or weed control at 200 ppm in assay [1], in assay [2], in assay [3] and in assay [4] was 80 to 100% each time.

Take `CCc1cc(CCNc2ncnc3c(F)ccc(F)c23)ccc1Oc1cc(C(F)(F)F)ccn1` [Compound 66]: the pest or weed control at 200 ppm in assay [1], in assay [2], in assay [3] and in assay [4] was 80 to 100% each time.

With `Fc1cc(CCNc2ncnc3c(F)cc(F)c(F)c23)ccc1Oc1cc(C(F)(F)F)ccn1` [Compound 67], the pest or weed control at 200 ppm in assay [1], in assay [2], in assay [3] and in assay [4] was 80 to 100% each time.

`COc1ccc(CCNc2ncnc3c(F)cc(F)c(F)c23)cc1C` [Compound 68]: the pest or weed control at 200 ppm in assay [1] fell in the range of 0 to 49%; in assay [2], 50 to 79%; in assay [3], 0 to 49%; in assay [4] it was 80 to 100%.

For `COc1cc(CCNc2ncnc3c(F)ccc(F)c23)ccc1Oc1c(Cl)cnc(C(F)(F)F)c1Cl` [Compound 69], the pest or weed control at 200 ppm in assay [1], in assay [2], in assay [3] and in assay [4] was 80 to 100% throughout.

For the compound `Cc1cc(CCNc2ncnc3c(F)cc(F)c(F)c23)ccc1O` [Compound 70], the pest or weed control at 200 ppm fell in the range of 50 to 79% in assay [1], 0 to 49% in assay [2], 50 to 79% in assay [3] and 50 to 79% in assay [4].

Regarding `COc1ccc(CCNc2ncnc3c(F)ccc(F)c23)c(F)c1` [Compound 72], in assay [1] (foliar, Tested at 25 ppm (footnote b)), the pest or weed control at 25 ppm was 0 to 49%. Moreover, the pest or weed control at 200 ppm in assay [2], in assay [3] and in assay [4] was 80 to 100% throughout.

As for `[O-][n+]1ccc(C(F)(F)F)cc1Oc1ccc(CCNc2ncnc3c(F)cc(F)c(F)c23)cc1` [Compound 75], the pest or weed control at 200 ppm in assay [1], in assay [2], in assay [3] and in assay [4] was 80 to 100% each time.

As for `COc1cc(CCNc2ncnc3c(F)ccc(F)c23)ccc1Oc1ccnc(C(F)(F)F)c1` [Compound 77], the pest or weed control at 200 ppm in assay [1], in assay [2], in assay [3] and in assay [4] was 80 to 100% throughout.

With `COc1cc(CCNc2ncnc3c(F)ccc(F)c23)ccc1Oc1ccnc(C(F)(F)F)c1Cl` [Compound 78], the pest or weed control at 200 ppm in assay [1], in assay [2], in assay [3] and in assay [4] was 80 to 100% in each case.

Regarding `Cc1cc(CCNc2ncnc3c(F)ccc(F)c23)ccc1Oc1c(Cl)cnc(C(F)(F)F)c1Cl` [Compound 79], the pest or weed control at 200 ppm is 80 to 100% in assay [1], 50 to 79% in assay [2], 80 to 100% in assay [3] and 80 to 100% in assay [4].

Turning to `Cc1cc(CCNc2ncnc3c(F)cc(F)c(F)c23)ccc1Oc1cc(C(F)(F)F)ccn1` [Compound 80], the pest or weed control at 200 ppm in assay [1], in assay [2], in assay [3] and in assay [4] was 80 to 100% in each case.

In the case of `Cc1cc(CCNc2ncnc3c(F)cc(F)c(F)c23)ccc1Oc1cc(C(F)(F)F)cc[n+]1[O-]` [Compound 81], the pest or weed control at 200 ppm in assay [1], in assay [2], in assay [3] and in assay [4] was 80 to 100% throughout.

Take `Cc1cc(CCNc2ncnc3c(F)ccc(F)c23)ccc1Oc1ccnc(C(F)(F)F)c1` [Compound 82]: the pest or weed control at 200 ppm in assay [1], in assay [2], in assay [3] and in assay [4] was 80 to 100% each time.

As for `Fc1ccc(F)c2c(NCCc3ccc(Oc4ccncc4C(F)(F)F)cc3)ncnc12` [Compound 83], the pest or weed control at 200 ppm in assay [1], in assay [2], in assay [3] and in assay [4] was 80 to 100% in each case.

Turning to `[O-][n+]1ccc(Oc2ccc(CCNc3ncnc4c(F)ccc(F)c34)cc2)c(C(F)(F)F)c1` [Compound 84], the pest or weed control at 200 ppm in assay [1], in assay [2], in assay [3] and in assay [4] was 80 to 100% throughout.

`COc1ccc(CCNc2ncnc3c(F)ccc(F)c23)cc1Cl` [Compound 85]: the pest or weed control at 200 ppm in assay [1] lay within 0 to 49%; in assay [2], 80 to 100%; in assay [3], 0 to 49%; in assay [4], 50 to 79%.

Take `COc1ccc(CCNc2ncnc3c(F)cc(F)c(F)c23)cc1Cl` [Compound 86]: the pest or weed control at 200 ppm lay in the range of 0 to 49% in assay [1], 80 to 100% in assay [2], 0 to 49% in assay [3] and 0 to 49% in assay [4].

As to `Oc1ccc(CCNc2ncnc3c(F)ccc(F)c23)cc1Cl` [Compound 87], the pest or weed control at 200 ppm in assay [1] lay in the range of 0 to 49%; in assay [2], 50 to 79%; in assay [3] it was 0 to 49%; in assay [4], 0 to 49%.

With `Oc1ccc(CCNc2ncnc3c(F)cc(F)c(F)c23)cc1Cl` [Compound 88], the pest or weed control at 200 ppm in assay [1] was in the range of 0 to 49%; in assay [2], 80 to 100%; in assay [3] it was 0 to 49%; in assay [4], 0 to 49%.

For the compound `COc1cc(CCNc2ncnc3c(F)ccc(F)c23)ccc1Oc1c(Cl)cnc(C(Cl)(Cl)Cl)c1Cl` [Compound 89], the pest or weed control at 200 ppm in assay [1] was in the range of 50 to 79%; in assay [2] it was 50 to 79%; in assay [3], 80 to 100%; in assay [4], 50 to 79%.

As for `Fc1ccc(F)c2c(NCCc3ccc(Oc4cc(C(F)(F)F)ccn4)c(Cl)c3)ncnc12` [Compound 90], the pest or weed control at 200 ppm in assay [1], in assay [2], in assay [3] and in assay [4] was 80 to 100% each time.

Turning to `Fc1ccc(F)c2c(NCCc3ccc(Oc4cnccc4C(F)(F)F)c(Cl)c3)ncnc12` [Compound 91], the pest or weed control at 200 ppm in assay [1], in assay [2], in assay [3] and in assay [4] was 80 to 100% each time.

Consider `Fc1ccc(F)c2c(NCCc3ccccc3)ncnc12` [Compound 94], for which the pest or weed control at 200 ppm in assay [1] lay in the range of 50 to 79%; in assay [2], 80 to 100%; in assay [3] it was 80 to 100%; in assay [4], 0 to 49%.

In the case of `Fc1ccc(F)c2c(NCCc3ccc(Oc4c(Cl)cnc(C(F)(F)F)c4Cl)cc3)ncnc12` [Compound 95], the pest or weed control at 200 ppm in assay [1], in assay [2], in assay [3] and in assay [4] was 80 to 100% each time.

For `Fc1ccc(F)c2c(NCCc3ccc(Oc4ccnc(C(F)(F)F)c4Cl)cc3)ncnc12` [Compound 96], the pest or weed control at 200 ppm in assay [1], in assay [2], in assay [3] and in assay [4] was 80 to 100% throughout.

In the case of `Nc1c(F)c(F)nc(Oc2ccc(CCNc3ncnc4c(F)ccc(F)c34)cc2)c1F` [Compound 97], the pest or weed control at 200 ppm in assay [1] was in the range of 50 to 79%; in assay [2] it was 80 to 100%; in assay [3], 80 to 100%; in assay [4], 80 to 100%.

On to `COc1cc(CCNc2ncnc3c(F)ccc(F)c23)ccc1Oc1nc(F)c(F)c(N)c1F` [Compound 98], for which the pest or weed control at 200 ppm in assay [1] is 0 to 49%; in assay [2] it was 80 to 100%; in assay [3], 80 to 100%; in assay [4], 80 to 100%.

In the case of `Cc1cc(CCNc2ncnc3c(F)ccc(F)c23)ccc1Oc1nc(F)c(F)c(N)c1F` [Compound 99], the pest or weed control at 200 ppm is 0 to 49% in assay [1], 80 to 100% in assay [2], 80 to 100% in assay [3] and 80 to 100% in assay [4].

Regarding `Fc1nc(C(F)(F)F)nc(Oc2ccc(CCNc3ncnc4c(F)ccc(F)c34)cc2)c1F` [Compound 100], the pest or weed control at 200 ppm was in the range of 0 to 49% in assay [1], 80 to 100% in assay [2], 0 to 49% in assay [3] and 0 to 49% in assay [4].

Turning to `COc1cc(CCNc2ncnc3c(F)ccc(F)c23)ccc1Oc1nc(C(F)(F)F)nc(F)c1F` [Compound 101], the pest or weed control at 200 ppm was in the range of 0 to 49% in assay [1], 80 to 100% in assay [2], 50 to 79% in assay [3] and 0 to 49% in assay [4].
